pKi: −log10 of the molar value.
Experiments:
[1] = Acute toxicity, single intraperitoneal injection, probit analysis (LD50); assay type: in vivo, Mäusen; conditions: mice, i.p.
Text: Ihre akute Toxizität wurde an Mäusen (einmalige intraperitoneale Injektion) nach der Methode der Probit-Analyse nach Zichtfield, Wilcoxon, t949 untersucht. In Tabelle 2 sind die Parameter der akuten Toxizität (LDso) angegeben, die eine mäßige Toxizität der erfindungsgemäßen Verbindungen belegen.

[2] = Side effects and CNS/behaviour: tremor (TD50), sedative and m-cholinomimetic effects; assay type: in vivo; conditions: for Verhältnis TD50 zu ED50: ED50 = dose blocking the effect of Skopolamin in 50 % of the animals (passive avoidance, mice); for TD50 (Tremor): toxic dose causing tremor in 50 % of the animals
Text: Von Interesse ist der Einfluß der erfindungsgemäßen Verbindungen auf das ZNS und das Verhalten der Tiere.

[3] = test system: durch Skopolamin hervorgerufene Amnesie; assay: Dark avoidance assay (passive avoidance), scopolamine-induced amnesia; assay type: in vivo, Mäusen; conditions: mice, compound s.c. 5 min before learning, Skopolamin i.p. 30 min before
Procedure: Die Mäuse wurden dabei in den hellen Abschnitt der Kammer gegeben, wonach die Latenzzeit für den Übertritt in die dunkle Kammer, in der die Tiere einem Stromschlag von 0,5 mA ausgesetzt waren, registriert wurde. Danach erhöhte sich die Latenzzeit für den Übertritt in den dunklen Abschnitt und verringerte sich die Aufenthaltsdauer. 30 Minuten vor dem Versuch wurden den Mäusen i.p. […] Gedächtnisstörungen hervorrufendes Skopolamin als Cholinblocker injiziert. Die erfindungsgemäßen Verbindungen wurden s.c. 5 Minuten vor dem Lernvorgang injiziert. Das Skopolamin verkürzt die Latenzzeit für den Übertritt in die dunkle Kammer, die erfindungsgemäßen Verbindungen stellen jedoch die Latenzzeitwerte wie bei der Kontrollgruppe wieder her oder bedingen ein geringfügiges Überschreiten dieser Werte (siehe Tabelle 2). Gleichzeitig wird die Aufenthaltsdauer der Tiere im dunklen Abschnitt der Kammer auf 36 bis 45 Hundertstel des Ausgangswerts verringert.

[4] = test system: Nerven-Muskel-Präparat von Mäusen (n.peroneus-m.extensor digitorum longus); assay: Neuromuscular transmission in isolated nerve-muscle preparation (EPP, minEPP); conditions: for Stimulierung der Nerven-Muskelübertragung, in % der Amplitude: EPP: EPP = Endplattenpotential
Text: Der Einfluß der Stoffe auf die Nerven-Muskei-Übertragung wurde am isolierten Nerven-Muskel-Präparat von Mäusen (n.peroneus-m.extensor digitorum longus) (s. Bhattacharyya B. et al. "Neuromuscular blocking action of two hemicholinium-3 analogs" Europ. J. Pharmac. 146, 155-165 /1988/) untersucht, das von Lilly-Lösung perfundiert wurde, durch die man ein Gemisch von 02 und C02 leitete. […] Das Endplattenpotential (EPP) und das Endplattenminiaturpotential (minEPP) wurden mit Hilfe eines Magnetografen aufgezeichnet und danach mit dem Computer ausgewertet. Ermittelt wurden die Frequenz (f), die Amplitude (A) und die Dauer (t) der minEPP und der EPP (s. Tabelle 2).

[5] = test system: isolierten Präparaten des rechten Vorhofs von Kaninchen; assay: Antiarrhythmic effect on isolated right atrium preparations (microelectrodes: AP duration, refractory period R, e/R); conditions: isolated right atrium of rabbit, microelectrodes
Text: (§1) Die antiarrhythmische Wirkung der erfindungsgemäßen Verbindungen wurde in zwei Versuchsserien untersucht, und zwar an isolierten Präparaten des rechten Vorhofs von Kaninchen und mit Hilfe des Calciumchlorid-Arrhythmie-Modells an Ratten. In den Versuchen an den isolierten Präparaten des rechten Vorhofs wurden mit Hilfe von Mikroelektroden die Dauer des AP sowie der Refraktärzeit (R) und die maximale Hemmung (e) und der Parameter (e/R) untersucht, durch den die Anfälligkeit des Myokards gegenüber der Entstehung von Arrhythmien gekennzeichnet wird. In den Versuchen an Ratten wurden diesen Calciumchlorid in einer Dosierung von 250 mg/kg injiziert. Registriert wurden das Vorliegen von Kammerflimmern und die Lebensdauer der Tiere. Sämtliche erfindungsgemäßen Verbindungen üben eine mäßige antiarrhythmische Wirkung aus. Sie steigern die Refraktärzeit des Muskels und des AP um 35 bis 145 % und verringern gleichzeitig die Anfälligkeit des Myokards, ausgedrückt durch den Parameter e/R um 10 bis 80 % (s. Tabelle 4). In bezug auf diese Wirkung waren die Salze der bicyclischen Basen wirksamer als Amyridin. Bezüglich des Vermögens, die Tiere vor Kammerflimmern und vor dem Tod nach Verabreichung von 250 mg/kg Calciumchlorid zu schützen, waren diese Verbindungen ebenfalls am stärksten wirksam. Bei Verwendung des Calciumchlorid-Arrhythmie-Modells waren viele erfindungsgemäßen Verbindungen stärker wirksam als das klassische Antiarrhythmikum Chinidin (s. M.D. Ma s kovskij, Lekarstvennye sredstva, Bd. 1, S. 401, Moskau, Medicina, 1984).

[6] = test system: Calciumchlorid-Arrhythmie-Modells; assay: Calcium chloride arrhythmia model (250 mg/kg): ventricular fibrillation, survival; assay type: in vivo, Ratten; conditions: rats, calcium chloride 250 mg/kg
Text: as §1

Zahl der Krämpfe = assay: Writhing test (intraperitoneal acetic acid); assay type: in vivo, Mäusen; conditions: male mice
Text: Die analgetische Wirkung der erfindungsgemäßen Verbindungen wurde an männlichen Mäusen anhand des "Krampf"-Tests (Writhing-Tests) unter intraperitonealer Injizierung von Essigsäure und des Hot-plate-Tests untersucht. Im ersten Falle wurde die analgetische Wirkung der Verbindungen anhand der prozentualen Verringerung der Zahl der Krämpfe ermittelt. Beim zweiten Test wurde die Schwelle der Schmerzempfindlichkeit (Ablecken der Pfoten) bestimmt. Die stärkste analgetische Wirkung der erfindungsgemäßen Verbindungen zeigte sich beim "Krampf"-Test. Dabei übertrafen die Salze der bicyclischen Basen Amyridin, aber nicht alle erfindungsgemäßen Verbindungen waren schwächer als Morphin (s. Tabelle 4).

Orientierungsaktivität = assay: Influence on orientation activity; assay type: in vivo, Mäusen; conditions: mice
Text: Von Interesse ist der Einfluß der erfindungsgemäßen Verbindungen auf das ZNS und das Verhalten der Tiere. Alle Verbindungen zeigen eine Kombination von stimulierenden und sedativen Eigenschaften und bei höheren Dosen auch eine m-cholinomimetische Wirkung, wobei Tremor, Speichelfluß und Diarrhoe ausgelöst werden.

Wirkung von Hexenal = assay: Influence on the effect of Hexenal; assay type: in vivo, Mäusen; conditions: mice
[7] = biological target: T1, Acetylcholinesterase menschlicher Erythrozyten (Homo sapiens, UniProt P22303); assay: Acetylcholinesterase inhibition, spectrophotometric; assay type: biochemical; conditions: Acetylcholinesteraseinhibierung bei menschlichen Erythrozyten IK, (Mol), human erythrocyte enzyme
T1 construct: Acetylcholin-esteraseinhi-bierung bei menschlichen Erythrozyten; from tissue; host or cells: human erythrocytes
Text: Untersucht wurden die Wirkmechanismen der erfindungsgemäßen Verbindungen: • 1. Die Wirkung auf Acetylcholinesterase menschlicher Erythrozyten auf spektrofotometrischem Wege. • 2.

Uterus der Ratte = assay: Contractile activity of smooth muscle: rat uterus; conditions: Rattus norvegicus, read-out: Serotonin 1.10^-6 (Mol): Amplitude, % bezogen auf die Kontrolle, Uterus der Ratte; Konzentration 1.10^-4 Mol; n = 9
Text: (§2) In Versuchen an glattmpskulären Organen (Uterus, Samenleiter der Ratte und Krummdarm des Meerschweinchens) wurden die Wirkung der erfindungsgemäßen Verbindungen auf die kontraktile Aktivität der glatten Muskeln und ihre Reaktionen auf den Einfluß von Acetylcholin, Serotonin, Adrenalin und KCI als Agonisten untersucht. Mit Hilfe eines Schreibers wurden die Amplitude und die Dauer der Kontraktion der glatten Muskeln unter Verwendung eines Geräts vom Typ Mechanstron-untersucht.

Samenleiter der Ratte = assay: Contractile activity of smooth muscle: rat vas deferens; conditions: Rattus norvegicus, read-out: Adrenalin 1.10^-6: Amplitude, % bezogen auf d.Kontrolle, Samenleiter der Ratte; Konzentration 1.10^-4 Mol; n = 9
Text: as §2

T1 sequence (P22303 other isoform, or with tags, fused parts or gaps): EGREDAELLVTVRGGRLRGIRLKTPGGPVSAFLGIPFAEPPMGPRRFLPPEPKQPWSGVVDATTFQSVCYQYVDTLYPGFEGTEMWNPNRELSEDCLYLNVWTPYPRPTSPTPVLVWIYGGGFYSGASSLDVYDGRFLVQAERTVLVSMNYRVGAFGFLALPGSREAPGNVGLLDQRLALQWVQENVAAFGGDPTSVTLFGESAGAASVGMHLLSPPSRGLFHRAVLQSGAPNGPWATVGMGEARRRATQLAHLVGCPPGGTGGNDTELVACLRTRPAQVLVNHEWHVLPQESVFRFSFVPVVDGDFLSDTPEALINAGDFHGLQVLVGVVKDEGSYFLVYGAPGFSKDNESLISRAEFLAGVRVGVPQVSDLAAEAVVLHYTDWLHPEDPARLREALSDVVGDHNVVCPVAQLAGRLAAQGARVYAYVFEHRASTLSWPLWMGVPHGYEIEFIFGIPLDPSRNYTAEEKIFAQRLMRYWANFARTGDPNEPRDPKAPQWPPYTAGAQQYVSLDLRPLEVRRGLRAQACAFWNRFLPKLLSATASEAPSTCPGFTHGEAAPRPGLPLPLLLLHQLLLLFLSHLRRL

| SMILES | LD50 [1] | Verhältnis TD50 zu ED50 [2] | TD50 (Tremor) [2] | Einfluß auf das Gedächtnis: Zahl der Tiere in %, bei denen die Skopolaminwirkung aufgehoben wurde [3] | Stimulierung der Nerven-Muskelübertragung, in % der Amplitude: EPP [4] | Stimulierung der Nerven-Muskelübertragung, in % der Amplitude: minEPP [4] | Antiarrhythmische Wirkung: Verlängerung d. Refraktärzeit (R), in % [5] | Antiarrhythmische Wirkung: Verlängerung d. Lebensdauer von Ratten an Hand des CaCl2-Arrhythmie-Modells, in % [6] | Analgetische Wirkung: Abnahme d. Zahl der "Krämpfe" bei Mäusen, in % (Zahl der Krämpfe) | Änderung der Orientierungsaktivität, in % (Orientierungsaktivität) | Änderung der Dauer der Seitenlage, in %: Hexenal 60 mg/kg (Wirkung von Hexenal) | pKi [7] | activity at 100 µM (Uterus der Ratte) | activity at 100 µM (Samenleiter der Ratte) |
| --- | --- | --- | --- | --- | --- | --- | --- | --- | --- | --- | --- | --- | --- | --- |
| Cc1nc2c(c(N)c1C)CCC2 [Verbindung 16] | 21 mg/kg | 6,6 | 10 mg/kg | 75% | 42% | 78% | 80% | 70% | 50% | -10% | +22% | 6.24 | – | – |
| Cc1nc2c(c(N)c1C)CCC2 [Verbindung 7] | 20 mg/kg | 9 | 9 mg/kg | 80% | 52% | 95% | 110% | 150% | 60% | -25% | +32% | 6.44 | – | – |
| Cc1nc2c(c(N)c1C)CCC2 [Verbindung 10] | 15 mg/kg | 7,5 | 6 mg/kg | 80% | 38% | 79% | 120% | 180% | 60% | 0% | 0% | 6.91 | 160% | 160% |
| Cc1nc2c(c(N)c1C)CCC2 [Verbindung 13] | 18 mg/kg | 8,5 | 8 mg/kg | 65% | 35% | 72% | 120% | 100% | 60% | -10% | +25% | 6.35 | – | – |

Reference: EP0326134A1, “4-Amino-2,3-disubstituted-6,7-dihydro-5H-1-pyridine derivatives, process for their preparation and medicaments containing them” (NAUCHNO-ISSLEDOVATELSKY INSTITUT TEKHNOLOGII I BEZOPASNOSTI …, priority 1988, dated 1989)
